Results from paper PMC7546796, “Myricanol Inhibits the Type III Secretion System of Salmonella enterica Serovar Typhimurium by Interfering With the DNA-Binding Activity of HilD” (Frontiers in Microbiology, 2020).

Biological target: HilD (Salmonella enterica, UniProt P0CL08)
Assay: microscale thermophoresis with dye-labeled purified HilD; supported by thermal shift, DARTS and EMSA
Assay type: binding

Chain of HilD (P0CL08 whole entry): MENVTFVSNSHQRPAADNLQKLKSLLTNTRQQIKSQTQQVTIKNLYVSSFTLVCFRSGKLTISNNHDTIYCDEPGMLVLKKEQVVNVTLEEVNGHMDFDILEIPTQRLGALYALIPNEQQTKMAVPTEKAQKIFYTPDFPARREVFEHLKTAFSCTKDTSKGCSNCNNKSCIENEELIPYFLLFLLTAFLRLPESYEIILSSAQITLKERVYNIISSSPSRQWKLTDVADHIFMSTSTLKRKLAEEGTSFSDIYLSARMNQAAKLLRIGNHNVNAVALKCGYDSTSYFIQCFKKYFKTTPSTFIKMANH

SMILES: COc1c2cc(c(O)c1OC)CCCC[C@@H](O)CCc1ccc(O)c-2c1 [compound 1, myricanol]
- Kd: 1380 ± 530 nM
